For 46 compounds, IC50 results are on record in patent US20240174680A1, “CDK2 INHIBITORS AND METHODS OF USING THE SAME” (Cedilla Therapeutics, Inc., priority 2021, published 2024).

The assay concerns the target CDK2/Cyclin E1 (Homo sapiens, UniProt P24941). Kind of assay: CDK2/Cyclin E1 Caliper LabChip EZ Reader mobility shift assay. Type of assay: biochemical. Set-up: purchased Eurofins 14-475. To be noted: read-out: Caliper Assay (CDK2/CCNE1): IC50. Put shortly: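 Substrate-to-product conversion of fluorescent peptide (1.5 μM final) read by capillary electrophoresis after 100 min reaction, EDTA-quenched. Enzyme (2.5 nM final) and ATP (100 μM final) were preincubated 30 min with inhibitor dilutions first. % activity vs concentration fitted four-parameter for IC50.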

Consider `CNC(=O)[C@@H](NC(=O)[C@@H]1CN(C(=O)c2cn[nH]c2)CC12CN(C(=O)CC1CC1)C2)[C@@H](C)OCc1ccccc1` [I-41A, (S)—N-((2S,3R)-3-(benzyloxy)-1-(methylamino)-1-oxobutan-2-yl)-2-(2-cyclopropylacetyl)-6-(1H-pyrazole-4-carbonyl)-2,6-diazaspiro[3.4]octane-8-carboxamide], for which the IC50 is over 10000 nM.
Consider `CNC(=O)[C@@H](NC(=O)[C@@H]1CN(C(=O)c2cncs2)CC12CN(C(=O)[C@H]1CC1(C)C)C2)[C@@H](C)OC1C2CC3CC(C2)CC1C3` (stereo partly shown) [I-463], for which the IC50 fell in the range of 10 to 100 nM.
Take `C[C@@H](OCC1CCCCC1)[C@H](NC(=O)[C@H]1CN(C(=O)c2cnn(Cc3ccccc3)c2)CC12CN(C(=O)[C@H]1CC1(C)C)C2)C(=O)N1CCC(F)(F)CC1` [I-149B]: the IC50 lay within 100 to 1000 nM.
On to `CNC(=O)[C@@H](NC(=O)[C@@H]1CN(C(=O)c2cncs2)CC12CN(C(=O)[C@H]1CC1(C)C)C2)[C@@H](C)OC1CC2CCC1CC2` (stereo partly shown) [I-464], for which the IC50 is 10 to 100 nM.
The same measure for `CNC(=O)[C@@H](NC(=O)[C@@H]1CN(C(=O)c2cn[nH]c2)CC12CN(C(=O)[C@H]1CC1(C)C)C2)[C@@H](C)OCC1CCCCC1` [I-66A, (S)—N-((2S,3R)-3-(cyclohexylmethoxy)-1-(methylamino)-1-oxobutan-2-yl)-2-((S)-2,2-dimethylcyclopropane-1-carbonyl)-6-(1H-pyrazole-4-carbonyl)-2,6-diazaspiro[3.4]octane-8-carboxamide]: 10 to 100 nM.
Turning to `CNC(=O)[C@@H](NC(=O)[C@H]1CN(C(=O)c2cnn(Cc3ccccc3)c2)CC12CN(C(=O)C1(C(F)(F)F)CC1)C2)[C@@H](C)OCc1ccccc1` [I-108B], the IC50 is over 10000 nM.
With `C[C@@H](OCC1CCC(F)(F)CC1)[C@H](NC(=O)[C@@H]1CN(C(=O)c2cncs2)CC12CN(C(=O)[C@H]1CC1(C)C)C2)C(=O)N1CCC2(CC1)CC2` [I-380], the IC50 is at most 10 nM.
Consider `CNC(=O)[C@@H](NC(=O)[C@@H]1CN(C(=O)c2cnn(Cc3ccccc3)c2)CC12CN(C(=O)CC(F)(F)F)C2)[C@@H](C)OCc1ccccc1` [I-87A], for which the IC50 lay within 100 to 1000 nM.
The same measure for `CNC(=O)[C@@H](NC(=O)[C@@H]1CN(C(=O)c2cnn(CC(F)(F)F)c2)CC12CN(C(=O)CC1CC1)C2)[C@@H](C)OCc1ccccc1` [I-43A]: over 10000 nM.
Turning to `[2H]C([2H])([2H])OC[C@H]1CCCN(C(=O)[C@@H](NC(=O)[C@@H]2CN(C(=O)c3cncs3)CC23CN(C(=O)C(C)(C)C2CC2)C3)[C@@H](C)OCC23CCC(CC2)OC3)C1` [I-459], the IC50 is 10 to 100 nM.
Regarding `CNC(=O)[C@@H](NC(=O)[C@@H]1CN(C(=O)c2cnn(Cc3ccccc3)c2)CC12CN(C(=O)C1(C(F)(F)F)CC1)C2)[C@@H](C)OCc1ccccc1` [I-108A], the IC50 was 100 to 1000 nM.
The value for `CC1(C)C[C@@H]1C(=O)N1CC2(CN(C(=O)c3cnn(Cc4ccccc4)c3)C[C@H]2C(=O)Nc2cccc(-c3ccccc3)c2)C1` [I-63A] was 1000 to 10000 nM; that for `COC(=O)[C@H](CO)NC(=O)[C@H]1CN(C(=O)c2cnn(Cc3ccccc3)c2)CC12CN(C(=O)[C@H]1CC1(C)C)C2` [I-209B] was over 10000 nM.
On to `CNC(=O)[C@@H](NC(=O)[C@@H]1CN(C(=O)c2cnn(C)c2)CC12CN(C(=O)[C@H]1CC1(C)C)C2)[C@@H](C)OCc1ccccc1` [I-33A], for which the IC50 was 100 to 1000 nM.
With `CNC(=O)[C@@H](NC(=O)[C@H]1CN(C(=O)c2cnco2)CC12CN(C(=O)[C@H]1CC1(C)C)C2)[C@@H](C)OCc1ccccc1` [I-39B], the IC50 was over 10000 nM.
The value for `C[C@@H](OCC1CCC(F)(F)CC1)[C@H](NC(=O)[C@@H]1CN(C(=O)c2cncs2)CC12CN(C(=O)[C@H]1CC1(C)C)C2)C(=O)N1CCC(O)CC1` [I-383] was at most 10 nM; that for `COC[C@H]1CCCN(C(=O)[C@@H](NC(=O)[C@@H]2CN(C(=O)c3cncs3)CC23CN(C(=O)[C@H]2CC2(C)C)C3)[C@@H](C)OC(C)C2CCCCC2)C1` (stereo partly shown) [I-374] was at most 10 nM; that for `CC1(C)C[C@@H]1C(=O)N1CC2(CN(C(=O)c3cncs3)C[C@H]2C(=O)NC(c2cccc(C3CCCCC3)n2)C2COCCO2)C1` (stereo partly shown) [I-496] was 10 to 100 nM.
For the compound `COC[C@H]1CCCN(C(=O)[C@@H](NC(=O)[C@@H]2CN(C(=O)c3cncs3)CC23CN(S(=O)(=O)C(C)(C)C)C3)[C@@H](C)OCC2CCCCC2)C1` [I-447, (S)-2-(tert-butylsulfonyl)-N-((2S,3R)-3-(cyclohexylmethoxy)-1-((S)-3-(methoxymethyl)piperidin-1-yl)-1-oxobutan-2-yl)-6-(thiazole-5-carbonyl)-2,6-diazaspiro[3.4]octane-8-carboxamide], the IC50 was 100 to 1000 nM.
Take `C[C@@H](OCC1CCC(F)(F)CC1)[C@H](NC(=O)[C@@H]1CN(C(=O)c2cncs2)CC12CN(C(=O)[C@H]1CC1(C)C)C2)C(=O)N1C2CCC1COC2` [I-468]: the IC50 was at most 10 nM.
`CNC(=O)[C@@H](NC(=O)[C@H]1CN(C(=O)c2cnn(Cc3ccccc3)c2)CC12CN(C(=O)CC1(CO)CC1)C2)[C@@H](C)OCc1ccccc1` [I-92B]: the IC50 was over 10000 nM.
As for `CNC(=O)[C@@H](NC(=O)[C@@H]1CN(C(=O)C2CCOCC2)CC12CN(C(=O)[C@H]1CC1(C)C)C2)[C@@H](C)OCc1ccccc1` [I-38A], the IC50 is over 10000 nM.
The same measure for `CC1(C)C[C@@H]1C(=O)N1CC2(CN(C(=O)c3cnn(Cc4ccccc4)c3)C[C@@H]2C(=O)N[C@H]2CCCN(C(=O)c3ccccc3)C2)C1` [I-83B]: over 10000 nM; for `C[C@@H](OCC1CCC(F)(F)CC1)[C@H](NC(=O)[C@@H]1CN(C(=O)c2cncs2)CC12CN(C(=O)[C@H]1CC1(C)C)C2)C(=O)N1CCC[C@H](COC(F)(F)F)C1` [I-326]: at most 10 nM; for `CCC(CC)C(=O)N1CC2(CN(C(=O)c3cnn(Cc4ccccc4)c3)C[C@@H]2C(=O)N[C@H](C(=O)NC)[C@@H](C)OCc2ccccc2)C1` [I-74B]: over 10000 nM.
The value for `CNC(=O)[C@@H](NC(=O)[C@H]1CN(C(=O)c2cnn(Cc3ccccc3)c2)CC12CN(C(=O)C1(c3ccc(C(C)(C)C)cc3)CC1)C2)[C@@H](C)OCc1ccccc1` [I-80B] was over 10000 nM; that for `CNC(=O)[C@@H](NC(=O)[C@H]1CN(C(=O)c2cnn(Cc3ccccc3)c2)CC12CN(C(=O)C1CC1(C)C)C2)[C@@H](C)O` (stereo partly shown) [I-88B] was over 10000 nM.
With `CNC(=O)C(NC(=O)[C@@H]1CN(C(=O)c2cncs2)CC12CN(C(=O)[C@H]1CC1(C)C)C2)c1ccc(C)nn1` (stereo partly shown) [I-420], the IC50 is over 10000 nM.
For `CNC(=O)[C@@H](NC(=O)[C@@H]1CN(Cc2cnn(C)c2)CC12CN(C(=O)[C@H]1CC1(C)C)C2)[C@@H](C)OCc1ccccc1` [I-47A], the IC50 is over 10000 nM.
On to `Cc1ccc(CNC(=O)[C@@H]2CN(C(=O)c3cnn(Cc4ccccc4)c3)CC23CN(C(=O)[C@H]2CC2(C)C)C3)cn1` [I-364], for which the IC50 is over 10000 nM.
The same measure for `CNC(=O)[C@@H](NC(=O)[C@H]1CN(C(=O)c2cnn(Cc3ccccc3)c2)CC12CN(C(=O)Cc1ccccc1)C2)[C@@H](C)OCc1ccccc1` [I-25B]: over 10000 nM; for `Cc1ccc(CNC(=O)[C@@H]2CN(C(=O)c3cnn(Cc4ccccc4)c3)CC23CN(C(=O)[C@H]2CC2(C)C)C3)cc1` [I-363]: 1000 to 10000 nM; for `CNC(=O)[C@H](CS(=O)(=O)Cc1ccccc1)NC(=O)[C@@H]1CN(C(=O)c2cnn(Cc3ccccc3)c2)CC12CN(C(=O)[C@H]1CC1(C)C)C2` [I-226]: 1000 to 10000 nM.
Take `CNC(=O)[C@@H](NC(=O)[C@@H]1CN(C(=O)c2cnn(Cc3ccccc3)c2)CC12CN(C(=O)CC1CCC1)C2)[C@@H](C)OCc1ccccc1` [I-27A]: the IC50 was in the range of 1000 to 10000 nM.
For the compound `C[C@@H](OCC1(C(F)(F)F)CC1)[C@H](NC(=O)[C@H]1CN(C(=O)c2cncs2)CC12CN(C(=O)[C@H]1CC1(C)C)C2)C(=O)N1CCCCC1` [I-292], the IC50 was 10 to 100 nM.
In the case of `CNC(=O)[C@@H](NC(=O)[C@@H]1CN(C(=O)c2cnn(Cc3ccccc3)c2)CC12CN(C(=O)[C@H]1CC1(C)C)C2)[C@@H](C)OCCC1CCCCC1` [I-125A], the IC50 was at most 10 nM.
Turning to `C[C@@H](OCC1CCCCC1)[C@@H](COCC1CCCCC1)NC(=O)[C@@H]1CN(C(=O)c2cncs2)CC12CN(C(=O)[C@H]1CC1(C)C)C2` [I-282], the IC50 is at most 10 nM.
Turning to `CNC(=O)[C@@H](CO)NC(=O)C1CN(C(=O)c2cnn(Cc3ccccc3)c2)CC12CN(C(=O)[C@H]1CC1(C)C)C2` (stereo partly shown) [I-261], the IC50 was over 10000 nM.
In the case of `CNC(=O)[C@@H](NC(=O)[C@@H]1CN(C(=O)c2cnn(Cc3ccccc3)c2)CC12CN(C(=O)[C@H]1CC1(C)C)C2)[C@@H](C)OCC1CCCCCC1` [I-166A], the IC50 was at most 10 nM.
The same measure for `COC1CCN(C(=O)[C@@H](NC(=O)[C@@H]2CN(C(=O)c3sc(C)nc3C)CC23CN(C(=O)[C@H]2CC2(C)C)C3)[C@@H](C)OCC23CCC(CC2)OC3)CC1` [I-451]: 10 to 100 nM.
The same measure for `C[C@@H](OCc1ccccc1)[C@H](NC(=O)[C@@H]1CN(C(=O)c2cnn(Cc3ccccc3)c2)CC12CN(C(=O)[C@H]1CC1(C)C)C2)C(N)=O` [I-176A]: 10 to 100 nM; for `C[C@@H](OCC1CCCCC1)[C@H](NC(=O)C1CN(C(=O)c2cnn(Cc3ccccc3)c2)CC12CN(C(=O)[C@H]1CC1(C)C)C2)C(=O)N1CCCCC1` (stereo partly shown) [I-194 mixture]: at most 10 nM.
In the case of `CNC(=O)[C@@H](NC(=O)[C@H]1CN(C(=O)c2cnn(Cc3ccccc3)c2)CC12CN(C(=O)[C@H]1CC1(C)C)C2)[C@@H](C)OCC1CCCC1` [I-110B], the IC50 fell in the range of 100 to 1000 nM.
Consider `C[C@@H](OCC1CCCCC1)[C@@H](COC1CCCCC1)NC(=O)[C@@H]1CN(C(=O)c2cncs2)CC12CN(C(=O)[C@H]1CC1(C)C)C2` [I-308], for which the IC50 was at most 10 nM.
As for `CNC(=O)[C@@H](NC(=O)[C@@H]1CN(C(=O)c2cncs2)CC12CN(C(=O)[C@H]1CC1(C)C)C2)[C@@H](C)OCC1CCC2(CC1)CC2` [I-355], the IC50 was at most 10 nM.
Take `CC(C)(O)C(NC(=O)[C@@H]1CN(C(=O)c2cncs2)CC12CN(C(=O)C(C)(C)C1CC1)C2)c1cccc(C2CCOCC2)n1` (stereo partly shown) [I-339]: the IC50 lay in the range of 1000 to 10000 nM.
